Measured values published in PMC10692721, “Drug discovery for heart failure targeting myosin-binding protein C” (The Journal of Biological Chemistry, 2023).
*1 amine or outer side, *2 acyl side, *3 side chain or, on linkers, in order; H or OH if unused. Where a SMILES comes first, the peptide text is derived from it. Bridges are numbered along the chain shown (N, C = ends). [ ]: non-standard residue; d: D form. The star is where a group is joined. pTerphenylCO(4''-OnC5H11) = CCCCCOc1ccc(-c2ccc(-c3ccc(C(=O)*)cc3)cc2)cc1; Orn(4R-OH,5R-OH) = O=C([C@H](C[C@@H](O)[C@@H](O)N[*:3])N[*:1])[*:2]; hTyr(3S-OH,4S-OH) = N[C@H](C(=O)O)[C@H](O)[C@@H](O)c1ccc(O)cc1; Pro(3S-OH,4S-Me) = C[C@H]1CN[C@H](C(=O)O)[C@H]1O; Hyp = O=C(O)[C@@H]1C[C@@H](O)CN1

Assays:
TMR-cC0-C2 = assay: Selleck library HTS, 532 nm excitation (FLT of TMR-cC0-C2 in presence of FMAL-actin); assay type: binding, human; settings: for 532-nm Δτ, Repeat 1 / 532-nm Δτ, Repeat 2: initial screen, 30 μM compound; for 532-nm z-score (based on avg Δτ): robust z-score, hit threshold ±4, 30 μM compound
Protocol: (§1) Fluorescence lifetime (FLT) measurements were acquired using a high-throughput FLT plate reader (Fluorescence Innovations, Inc) ([14], [27]), provided by Photonic Pharma LLC. […] The observed waveforms were analyzed as described previously ([15], [28]).
(§2) In total, 50 nl of each solution was dispensed in DMSO using an automated Echo 550 acoustic liquid dispenser (Labcyte). Compounds were formatted into the assay plates, at a final concentration of 30 μM, with the first two and second to last columns loaded with DMSO only (compound-free controls). In the final column, 30 μM of suramin was loaded as a positive control (tool compound). These assay plates were then heat-sealed using a PlateLoc Thermal Microplate Sealer (Agilent Technologies) and stored at −20 °C. Before screening, compound plates were equilibrated to room temperature (∼25 °C). […] Plates were incubated at room temperature for 60 min before recording the data with the fluorescence lifetime plate reader.
Hits that exceeded the z-score hit criteria in the donor-only screen were excluded from consideration. To remove compounds with confounding fluorescence properties, a similarity index (SI, specifically the cosine distance, Equation 5) was computed using data from the SUPR instrument by comparing a region (500–540 nm) of the donor-only spectrum (I^(a)) for each well to that of the plate-wide average DMSO spectrum (I^(b)) in the same wavelength band ([29]). Compounds that exceeded an SI robust z-score of 4 were deemed likely fluorescent compounds and removed from consideration.(5) SI=1−∑Ii(a).Ii(b)/∑Ii(a).Ii(a)∑Ii(b).Ii(b)

[1] = system: FMAL-actin plus TMR-cC0-C2; assay: Selleck library HTS, 473 nm excitation (FLT of FMAL-actin with TMR-cC0-C2, FLT-FRET); assay type: binding, human; settings: for 473-nm Δτ, Repeat 1 / 473-nm Δτ, Repeat 2: initial screen, 30 μM compound; for 473-nm z-score (based on avg Δτ): robust z-score, hit threshold ±4, 30 μM compound
Protocol: as §1, §2
After fitting the waveforms with a single exponential decay to quantify donor FLT, the change in FLT (Δτ) was computed by performing a moving median subtraction in the order the plate was scanned with a window size of half a plate row […]. The reasons for this are twofold. Firstly, plate gradients are often observed due to the heating of the digitizer during acquisition.
To account for the necessity to correct for plate gradients in the computation of E, the median τDMSO prior to the application of the moving median correction was added to each well’s Δτ value to recover a rescaled value of τ.

[2] = system: FMAL-actin/TMR-fC1-C2 interaction; assay: FLT-FRET concentration-response assay, FMAL-actin plus TMR-fC1-C2; assay type: binding
Protocol: (§3) Compounds identified as initial hits were further examined to determine the concentration–response curves for seven conditions ([1]): FMAL-actin alone identified actin-binding compounds that alter the FLT of FMAL-actin ([2]).
as §1
(§4) The primary hits were dissolved in DMSO to make a 10 mM stock solution, which was serially diluted in 96-well mother plates. Hits were screened at eight concentrations (0.5–100 μM). […] Compounds (1 μl) were transferred from the mother plates into 384-well plates using a Mosquito HV liquid handler (TTP Labtech Ltd, Hertfordshire, UK). The same procedure of dispensing as for the pilot screening was applied in the concentration-response assays. Concentration dependence of the FLT-FRET (E/EDMSO) or FLT-TMR (Δτ) change data was fit to a Hill equation only under certain conditions to help guide the eye (Fig. 4).

[3] = system: FMAL-actin/TMR-cC0-C2 interaction; assay: FLT-FRET concentration-response assay, FMAL-actin plus TMR-cC0-C2; assay type: binding, human; settings: for specificity of FLT-FRET effect for unphosphorylated over phosphorylated cC0-C2: effect on cC0-C2 compared to phosphorylated cC0-C2 (Tables 1 and 2); for effect on FLT-FRET / binding between FMAL-actin and TMR-cC0-C2 (in words): unphosphorylated cC0-C2; for fold effect on increased FRET (or binding) (Table 2): comparison not given
Protocol: as §3, §1, §4

[4] = system: TMR-cC0-C2 (C0-C2 fragment of human cMyBP-C); assay: FLT-TMR concentration-response assay (FLT of TMR on cC0-C2, no actin); assay type: binding
Protocol: as §3, §1, §4

[5] = system: PKA-phosphorylated TMR-cC0-C2 (cC0-C2#P); assay: FLT-TMR concentration-response assay, PKA-phosphorylated cC0-C2; assay type: binding, human
Protocol: as §3, §1, §4

[6] = system: TMR-fC1-C2 (C1-C2 of fast skeletal MyBP-C); assay: FLT-TMR concentration-response assay, fC1-C2; assay type: binding
Protocol: as §3, §1, §4

[7] = concentration-response, no actin

Compound | 532-nm Δτ, Repeat 1 (TMR-cC0-C2) [ns] | 532-nm Δτ, Repeat 2 (TMR-cC0-C2) [ns] | 532-nm z-score (based on avg Δτ) (TMR-cC0-C2) | 473-nm Δτ, Repeat 1 [1] [ns] | 473-nm Δτ, Repeat 2 [1] [ns] | 473-nm z-score (based on avg Δτ) [1] | specificity of FLT-FRET effect for unphosphorylated over phosphorylated cC0-C2 [3] | cC0-C2/cC0-C2#P (ratio of FLT changes) ([4]; 60 μM compound) | cC0-C2 FLT change (% change from DMSO, FLT of TMR-MyBP-C) ([4]; 60 μM compound) [%] | cC0-C2#P FLT change (% change from DMSO, FLT of TMR-MyBP-C) ([5]; 60 μM compound) [%] | fold effect on increased FRET (or binding) (Table 2) [3] | cC0-C2/fC1-C2 (ratio of FLT changes) ([6]; 60 μM compound) | fC1-C2 FLT change (% change from DMSO, FLT of TMR-MyBP-C) ([6]; 60 μM compound) [%] | other results
CCCCC(=O)N(Cc1ccc(-c2ccccc2-c2nnn[nH]2)cc1)[C@H](C(=O)O)C(C)C [Valsartan] | 0.000 | 0.013 | 0.44 | 0.149 | 0.058 | 5.83 | stronger reduction of FRET with non-phosphorylated than phosphorylated |  |  |  |  |  |  | effect on FLT-FRET / binding between FMAL-actin and TMR-fC1-C2 (in words) [2]: decreased; effect on FLT-FRET / binding between FMAL-actin and TMR-cC0-C2 (in words) [3]: decreased
C[C@@H]1O[C@@H](O[C@H]2[C@H](O[C@H]3CC[C@@]4(C)[C@@H](CC[C@]5(C)[C@@H]4CC=C4[C@@H]6CC(C)(C)CC[C@]6(C(=O)O)CC[C@]45C)[C@]3(C)CO)OC[C@H](O)[C@@H]2O)[C@H](O)[C@H](O)[C@H]1O [α-Hederin] | 0.105 | 0.175 | 8.58 | -0.087 | -0.051 | -3.83 | 13–54 fold | 0.9 | 6.7 | 7.1 | fivefold or greater | 1.0 | 6.7 | 
Sacubitril/valsartan [Sacubitril/valsartan (LCZ696)] | -0.025 | 0.012 | -0.37 | 0.140 | 0.095 | 6.60 | stronger reduction of FRET with non-phosphorylated than phosphorylated |  |  |  |  |  |  | effect on FLT of TMR-cC0-C2 (in words) [4, 7]: do not affect; effect on FLT-FRET / binding between FMAL-actin and TMR-fC1-C2 (in words) [2]: decreased; effect on FLT-FRET / binding between FMAL-actin and TMR-cC0-C2 (in words) [3]: decreased; effect on FLT of TMR-fC1-C2 (in words) [6, 7]: do not affect
Verteporfin | 0.065 | 0.075 | 4.32 | 0.093 | 0.064 | 4.41 |  |  |  |  | fivefold or greater |  |  | cC0-C2/cC0-C2#P (ratio of FLT changes) ([4]; 10 μM compound (∗)): 0.8; cC0-C2 FLT change (% change from DMSO, FLT of TMR-MyBP-C) ([4]; 10 μM compound (∗)): 5.5%; cC0-C2#P FLT change (% change from DMSO, FLT of TMR-MyBP-C) ([5]; 10 μM compound (∗)): 6.8%; specificity of FLT-FRET effect for cC0-C2 over fC1-C2 ([3]; effect on cC0-C2 compared to fC1-C2 (Tables 1 and 2)): 22.4 fold; cC0-C2/fC1-C2 (ratio of FLT changes) ([6]; 10 μM compound (∗)): 2.2; fC1-C2 FLT change (% change from DMSO, FLT of TMR-MyBP-C) ([6]; 10 μM compound (∗)): 2.5%
C[C@H]1O[C@@H](O[C@H]2CC[C@@]3(C)[C@@H](CC[C@]4(C)[C@@H]3C=C[C@]35OC[C@@]6(CCC(C)(C)C[C@H]63)[C@H](O)C[C@]54C)[C@]2(C)CO)[C@H](O)[C@@H](O[C@@H]2O[C@H](CO)[C@@H](O)[C@H](O)[C@H]2O)[C@H]1O [Saikosaponin D] | 0.065 | 0.086 | 4.65 | -0.122 | -0.094 | -5.99 | 13–54 fold | 0.9 | 5.4 | 6.3 | fivefold or greater | 1.3 | 4.2 | 
CCCCCOc1ccc(-c2ccc(-c3ccc(C(=O)N[C@H]4C[C@@H](O)[C@@H](O)NC(=O)[C@@H]5[C@@H](O)[C@@H](C)CN5C(=O)[C@H]([C@@H](C)O)NC(=O)[C@H]([C@H](O)[C@@H](O)c5ccc(O)cc5)NC(=O)[C@@H]5C[C@@H](O)CN5C(=O)[C@H]([C@@H](C)O)NC4=O)cc3)cc2)cc1 [Anidulafungin] ({pTerphenylCO(4''-OnC5H11)}-[Orn(4R-OH,5R-OH)]T[Hyp][hTyr(3S-OH,4S-OH)]T[Pro(3S-OH,4S-Me)]; lactam 1-C) | 0.403 | 0.441 | 25.80 | 0.014 | 0.008 | 0.67 |  | 0.7 | 32.1 | 43.3 |  | 0.6 | 53.0 | 
Cc1cn(-c2cc(NC(=O)c3ccc(C)c(Nc4nccc(-c5cccnc5)n4)c3)cc(C(F)(F)F)c2)cn1.Cl [Nilotinib hydrochloride] | 0.121 | 0.105 | 6.94 | -0.063 | -0.031 | -2.59 |  | 0.7 | 10.1 | 14.1 |  | 0.6 | 15.6 | 
CCc1c(Cl)c(O)c(Cl)c(O)c1C(=O)O[C@H]1[C@H](O)[C@H](OC)[C@H](OC/C2=C\C=C\C[C@H](O)/C(C)=C/[C@H](CC)[C@@H](O[C@@H]3OC(C)(C)[C@@H](OC(=O)C(C)C)[C@H](O)[C@@H]3O)/C(C)=C/C(C)=C/C[C@@H]([C@@H](C)O)OC2=O)O[C@@H]1C [Fidaxomicin] | -0.001 | -0.028 | -0.86 | 0.057 | 0.084 | 3.98 |  | 10.4 | −5.2 | −0.5 |  | 1.2 | −4.3 | difference in effect on TMR FLT between unphosphorylated and phosphorylated TMR-cC0-C2 ([4]; from Table 3): 10.4 fold
